Earlier results in patent US20240252571A1, “Hemp Essential Oil” (priority 2023, published 2024).
Entries after “also recorded” stand apart in the source; their conditions may differ. Like-named read-outs stand apart in the source and are kept apart here. Where a SMILES comes first, the peptide text is derived from it.

Legend:
[1] = test system: SZ95 sebocytes
[2] = test system: SZ95 sebocytes; settings: for effect on the lipid synthesis-inhibitory (lipostatic) action of CBD: coapplication with CBD
[3] = test system: mild AD; settings: pediatric population
[4] = test system: Methicillin-resistant Staphylococcus epidermidis (MRSE)
[5] = test system: Enterococcus faecalis; settings: E. faecalis
[6] = test system: Methicillin-resistant Staphylococcus aureus (MRSA)
[7] = test system: ionic currents of SZ95 sebocytes; settings: CBD 10 μM, voltage ramp, -90 and +90 mV
[8] = test system: Listeria monocytogenes; settings: L. monocytogenes
[9] = test system: human sebaceous glands; settings: ex vivo hSOC
[10] = test system: Human dermal fibroblasts (HDFs); settings: compared with vitamin C
[11] = test system: intracellular calcium concentration of SZ95 sebocytes; settings: for effect on the CBD-induced increase of [Ca2+]IC: with CBD
[12] = test system: allergic contact dermatitis model; settings: experimental allergic contact dermatitis model
[13] = ethosomal carriers, murine model
[14] = test system: human keratinocytes
[15] = CBD 1-10% gel, monoarthritic rat; plasma concentration linear with dose
[16] = test system: Normal Human Epidermal Keratinocytes (NHEK); settings: HMOX1 most upregulated
[17] = test system: TNFA, IL1B and IL6 expression in human sebocytes
[18] = in vitro diffusion, human tissue
[19] = test system: mice epidermis; settings: topical application
[20] = test system: human skin equivalents; settings: compared with CBD
[21] = test system: Interleukin-1β, -6, -8, tumor necrosis factor α release; settings: inducers UVA, UVB, chemical, C. acnes
[22] = test system: itching; settings: murine models
[23] = lower CBD concentrations, 1-100 nM

CCCCC/C=C\C/C=C\C/C=C\C/C=C\CCCC(=O)NCCO [AEA, N-arachidonoyl ethanolamide]
apoptosis of human sebocytes ([1]; higher levels): induces apoptosis
lipid production in human sebocytes ([2]; low concentrations): stimulate lipid production

Cc1c(C(=O)NN2CCCCC2)nn(-c2ccc(Cl)cc2Cl)c1-c1ccc(I)cc1 [AM251]
effect on the lipid synthesis-inhibitory (lipostatic) action of CBD [2]: neither CB1- nor CB2-specific antagonists (AM251 and AM630) were able to antagonize

COc1ccc(C(=O)c2c(C)n(CCN3CCOCC3)c3cc(I)ccc23)cc1 [AM630]
effect on the lipid synthesis-inhibitory (lipostatic) action of CBD [2]: neither CB1- nor CB2-specific antagonists (AM251 and AM630) were able to antagonize

O=C(CCCCCCCC(=O)NCCO)NCCO [Adelmidrol]
efficacy in mild AD [3]: effective in treating mild AD

CC[C@H](C)[C@H](N)C1=N[C@H](C(=O)N[C@@H](CC(C)C)C(=O)N[C@H](CCC(=O)O)C(=O)N[C@H](C(=O)N[C@H]2CCCCNC(=O)[C@H](CC(N)=O)NC(=O)[C@@H](CC(=O)O)NC(=O)[C@H](Cc3cnc[nH]3)NC(=O)[C@@H](Cc3ccccc3)NC(=O)[C@H]([C@@H](C)CC)NC(=O)[C@@H](CCCN)NC2=O)[C@@H](C)CC)CS1 [BAC, Bacitracin] (HELM PEPTIDE1{[CC[C@H](C)[C@H](N)C1=N[C@H](C(=O)[*:2])CS1].L.[dE].I.K.[NCCC[C@@H](N[*:1])C(=O)[*:2]].I.[dF].H.[dD].N}$PEPTIDE1,PEPTIDE1,5:R3-11:R2$$$V2.0)
reduction of MIC of BAC versus BAC alone ([4]; combined with ½ MIC of C3D): ≥ 64 fold
reduction of MIC of BAC versus BAC alone ([5]; combined with ½ MIC of C3D): ≥ 64 fold
reduction of MIC of BAC versus BAC alone ([6]; MRSA, combined with ½ MIC of C3D): ≥ 64 fold

C=C(C)[C@@H]1CCC(C)=C[C@H]1c1c(O)cc(CCCCC)cc1O [CBD, cannabidiol]
membrane currents [7]: induced a mostly outwardly rectifying current and a positive shift in the reversal potential
Minimum Inhibitory Concentration (MIC) [4]: 8 µg/mL
Minimum Inhibitory Concentration (MIC) [8]: 4 µg/mL
cell number ([1]; 10 μM CBD, elongated application, 6-day treatments): decreased; also recorded: reduced
cytotoxicity ([1]; 50 μM CBD): evoked apoptosis-driven cytotoxicity
cellular viability, apoptosis, necrosis ([1]; CBD 1-10 μM): did not decrease cellular viability or induce either apoptosis or necrosis
proliferation of SZ95 sebocytes ([1]; CBD 1-10 μM): significantly reduce
basal lipogenesis in situ [9]: decreased basal lipogenesis
expression of the proliferation marker MKI67 [9]: markedly suppressed
lipogenic action of AEA in situ [9]: completely prevented
reactive oxygen species levels [10]: reduce reactive oxygen species levels in HDFs better than vitamin C
intracellular calcium concentration ([Ca2+]IC) [11]: significantly increased
anti-inflammatory properties [12]: exhibit anti-inflammatory properties
transdermal delivery [13]: successful transdermal delivery
Minimum Inhibitory Concentration (MIC) [5]: 8 µg/mL
peroxide-induced reduction of polyunsaturated fatty acids in the cell membrane [14]: protective effect
oxidative stress response ([14]; UVB irradiation and hydrogen peroxide): balance the oxidative stress response
lipid synthesis induced by arachidonic acid (AA) [2]: effectively inhibited
lipid synthesis induced by the combination of linoleic acid and testosterone (LA-T) [2]: effectively inhibited
lipogenesis ([2]; 10 μM CBD, 6-day treatments): decreased
lipogenesis ([2]; 50 μM CBD): decreased lipogenesis
basal neutral (sebaceous) lipid synthesis ([2]; CBD 1-10 μM, 24-hour treatment): neither semiquantitative Oil Red O nor quantitative Nile Red staining indicated changes; also recorded: no changes
inhibition of the lipogenic action of AEA ([2]; CBD 1-10 μM, dose-dependent): markedly inhibited; also recorded: quell the lipogenic actions in a dose-dependent manner
AA-enhanced "pathological" lipogenesis (lipidome) ([2]; acne-like conditions with AA): almost completely normalized
lipid synthesis induced by arachidonic acid (AA) ([2]; listed as CDI): inhibit extraneous lipid synthesis
lipid synthesis induced by the combination of linoleic acid and testosterone (LA-T) ([2]; listed as CDI): inhibit extraneous lipid synthesis
AA-induced lipid synthesis [2, 23]: did not influence
basal lipid synthesis [2, 23]: did not influence
absorption after topical application [15]: well-absorbed
expression of NRF2 target genes [16]: induced the expression of several NRF2 target genes
IL1B expression ([17]; LPS-induced): normalize
IL6 expression ([17]; LPS-induced): normalize
elevation of TNFA expression ([17]; induced by TLR2 activator lipoteichoic acid (LTA)): completely prevented
elevation of TNFA expression ([17]; induced by TLR4 activator LPS): completely prevented
elevation of TNFA expression ([17]; induced by pro-acne LA-T combination): prevent
permeation [18]: demonstrated CBD's permeation potential
activity against a variety of MRSA strains [6]: potent activity
Minimum Inhibitory Concentration (MIC) ([6]; MRSA): 4 µg/mL
levels of HMOX1 and expression of keratins 16 and 17 [19]: increased

CCCCCc1cc(O)c(C/C=C(\C)CCC=C(C)C)c(O)c1 [CBG, cannabigerol]
reactive oxygen species levels [10]: reduce reactive oxygen species levels in HDFs better than vitamin C
genes regulated [20]: regulates more genes than CBD
pro-inflammatory cytokine release [21]: inhibits
activity against a variety of MRSA strains [6]: potent activity

Cc1c(C(=O)Nc2cccc(C(F)(F)F)c2)cc(-c2ccccc2)n1CCCN1CCOCC1 [HC067047]
effect on the CBD-induced increase of [Ca2+]IC [11]: antagonized
basal lipid synthesis ([2]; TRPV4 antagonist alone): did not affect basal lipid synthesis
effect on the lipid synthesis-inhibitory (lipostatic) action of CBD [2]: prevented

CCCCCCCCCCCCCCCC(=O)NCCO [PEA]
itching [22]: reduce itching

CCCCCc1cc(O)c2c(c1)OC(C)(C)[C@@H]1CCC(C)=C[C@@H]21 [THC, tetrahydrocannabinol]
itching [22]: reduce itching

COc1cc(CNC(=O)CCCC/C=C/C(C)C)ccc1O [capsaicin]
lipostatic action by activation of TRPV1 [2]: potent lipostatic actions

N.N.N.N.N.N.N.N.N.N.N.N.N.N.[Cl-].[Cl-].[Cl-].[Cl-].[Cl-].[Cl-].[O-2].[O-2].[Ru+3].[Ru+3].[Ru+4] [ruthenium red]
effect on the CBD-induced increase of [Ca2+]IC [11]: antagonized
